“And” between values parts separate entries of the source, which are not always exact repeats. Equal values may be shown once. Read-outs that look alike come from different tables or passages of the source.
Columns and labels:
THP-1 cells = test: LPS stimulated cytokine production in THP-1 cells with citrulline; type: cell-based, human; settings: 0.3 mM to 9 mM; 300 ng/ml LPS; 24 hours
Procedure: Citrulline was purchased from Sigma-Aldrich (St. Louis, Mo.). THP1-Dual™ cells were purchased from Invivogen (San Diego, Calif.). Cells were cultured following the manufacturer's instruction, as described in EXAMPLE 11. For treatment, 0.3 mM to 9 mM of citrulline were first added to the culture medium. […] After 24 hours of treatment, media was collected and analyzed for cytokine production using 9-plex kit (Meso Scale Diagnostics Rockville, Md.).

TLR5 = target: T1, TLR5 (Homo sapiens, UniProt O60602); test: TLR5-NFkB-SEAP reporter gene assay in HEK 293T cells; type: cell-based
T1 construct: host or cells: human HEK 293T cells
T1 sequence (O60602 21-858): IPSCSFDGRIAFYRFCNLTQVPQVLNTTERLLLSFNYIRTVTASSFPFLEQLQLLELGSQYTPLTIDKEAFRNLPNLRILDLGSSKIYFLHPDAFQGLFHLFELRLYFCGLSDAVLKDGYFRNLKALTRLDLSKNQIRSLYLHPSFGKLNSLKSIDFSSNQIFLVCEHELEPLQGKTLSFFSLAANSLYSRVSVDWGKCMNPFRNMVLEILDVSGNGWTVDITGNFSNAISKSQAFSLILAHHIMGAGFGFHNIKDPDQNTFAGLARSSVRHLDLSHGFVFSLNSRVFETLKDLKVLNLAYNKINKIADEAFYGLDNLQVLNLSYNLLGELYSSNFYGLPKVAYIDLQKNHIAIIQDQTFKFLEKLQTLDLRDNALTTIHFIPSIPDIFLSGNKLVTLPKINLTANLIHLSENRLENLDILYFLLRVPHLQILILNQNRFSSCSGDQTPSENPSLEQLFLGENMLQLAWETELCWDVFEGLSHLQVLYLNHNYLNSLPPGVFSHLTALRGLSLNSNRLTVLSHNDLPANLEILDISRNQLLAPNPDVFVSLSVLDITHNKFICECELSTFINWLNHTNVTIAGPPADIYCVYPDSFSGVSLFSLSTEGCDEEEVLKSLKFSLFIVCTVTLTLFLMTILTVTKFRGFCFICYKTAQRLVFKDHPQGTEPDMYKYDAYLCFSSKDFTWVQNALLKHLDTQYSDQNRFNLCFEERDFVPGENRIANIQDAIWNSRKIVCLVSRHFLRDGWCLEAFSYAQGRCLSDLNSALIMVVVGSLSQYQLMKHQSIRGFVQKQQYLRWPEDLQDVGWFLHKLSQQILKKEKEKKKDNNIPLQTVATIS
Procedure: The cell line was named as TLR5-NFkB-SEAP.
S. subtilis and S. aureus flagellin were added at a range of concentration from 0.97 ng to 1 μg/ml. […]

NFkB-SEAP reporter gene = test: THP1-Dual reporter cells, NFkB-SEAP; type: cell-based, human; settings: dose dependent
From the text: (§1) THP1 NFkB-SEAP and IRF-Lucia™ Reporter Monocytes were purchased from Invivogen, San Diego, Calif. THP1-Dual cells were derived from the human THP-1 monocyte cell line by stable integration of two inducible reporter constructs. THP1-Dual cells feature the Lucia gene under the control of an ISG54 (interferon-stimulated gene) minimal promoter in conjunction with five interferon-stimulated response elements. THP1-Dual cells also express a SEAP reporter gene driven by an IFN-b minimal promoter fused to five copies of the NF-kB consensus transcriptional response element and three copies of the c-Rel binding site. As a result, THP1-Dual cells allow the simultaneous study of the NFkB pathway, by monitoring the activity of SEAP, and the interferon regulatory factor (IRF) pathway, by assessing the activity of Lucia (IRF-Luc). Both reporter proteins are readily measurable in the cell culture supernatant.
(§2) Cells were passed every 3 to 4 days by inoculating 300,000-500,000 cells/ml into a fresh T75 flask with 15 ml of fresh growth medium. […] After incubation for 18 hours at 37° C. and 5% CO2, secreted luciferase and SEAP were quantified with commercially available assay kits (QUANTI-Luc of Invivogen, San Diego, Calif. for luciferase; SEAP Reporter Gene Assay of Cayman Chemical Co., Ann Arbor, Mich. for SEAP).

E. coli LPS [1] = test: Displacement of LPS from binding to BODIPY TR cadaverine (Tables 3, 9, 12, 13); settings: 0.63 mM; E. coli LPS 15 μg/ml
P. gingivalis LPS 1690 = type: biochemical
Procedure: (§3) The Limulus Amebocyte Lysate Assay (LAL) is an assay to determine the total amount of lipopolysaccharide (LPS) in the sample tested (Pierce LAL Chromogenic Endotoxin Quantitation Kit, ThermoFischer Scientific, Waltham, Mass.). The assay was performed following manufacturer's instruction. Ninety-six-well microplates were first equilibrated in a heating block for 10 min at 37° C. Fifty μl each of standard or sample was dispensed into the microplate wells and incubated with the plate covered for 5 min at 37° C. Then 50 μl LAL was added to each well.
(§4) Plates were shaken gently and incubated for 10 min at 37° C. 100 μl of chromogenic substrate was added and incubated for 6 min at 37° C.
(§5) The Thermo Scientific Pierce LAL Chromogenic Endotoxin Quantitation Kit is a quantitative endpoint assay for the detection of LPS, which catalyzes the activation of a proenzyme in the modified Limulus Amebocyte Lysate (LAL). The activated proenzyme then splits p-Nitroaniline (pNA) from the colorless substrate, Ac-Ile-Glu-Ala-Arg-pNA. […] Then 50 μl LAL was added to each well. Plates were shaken gently and incubated for 10 min at 37° C. 100 μl of chromogenic substrate was added and incubated for 6 min at 37° C.

human primary monocytes = test: LPS-stimulated cytokine production in human primary monocytes; type: cell-based
Procedure: The primary human monocytes were purchased from Astarte Biologics (Bothell, Wash.). […] The medium was harvested at 24 hours after adding LPS and SnF2, and analyzed for proinflammatory cytokines in a kit following manufacturer's instruction (Meso Scale Diagnostics, Rockville, Md.).

TLR4 [2] = target: T2, TLR4 (Homo sapiens, UniProt O00206+Q9Y6Y9); type: cell-based; parameters: host or cells: human HEK 293T cells; settings: for reduction of P. gingivalis LPS activation on the TLR4 reporter system: P. gingivalis LPS 500 ng/ml
Target sequence in this assay (O00206 24-839): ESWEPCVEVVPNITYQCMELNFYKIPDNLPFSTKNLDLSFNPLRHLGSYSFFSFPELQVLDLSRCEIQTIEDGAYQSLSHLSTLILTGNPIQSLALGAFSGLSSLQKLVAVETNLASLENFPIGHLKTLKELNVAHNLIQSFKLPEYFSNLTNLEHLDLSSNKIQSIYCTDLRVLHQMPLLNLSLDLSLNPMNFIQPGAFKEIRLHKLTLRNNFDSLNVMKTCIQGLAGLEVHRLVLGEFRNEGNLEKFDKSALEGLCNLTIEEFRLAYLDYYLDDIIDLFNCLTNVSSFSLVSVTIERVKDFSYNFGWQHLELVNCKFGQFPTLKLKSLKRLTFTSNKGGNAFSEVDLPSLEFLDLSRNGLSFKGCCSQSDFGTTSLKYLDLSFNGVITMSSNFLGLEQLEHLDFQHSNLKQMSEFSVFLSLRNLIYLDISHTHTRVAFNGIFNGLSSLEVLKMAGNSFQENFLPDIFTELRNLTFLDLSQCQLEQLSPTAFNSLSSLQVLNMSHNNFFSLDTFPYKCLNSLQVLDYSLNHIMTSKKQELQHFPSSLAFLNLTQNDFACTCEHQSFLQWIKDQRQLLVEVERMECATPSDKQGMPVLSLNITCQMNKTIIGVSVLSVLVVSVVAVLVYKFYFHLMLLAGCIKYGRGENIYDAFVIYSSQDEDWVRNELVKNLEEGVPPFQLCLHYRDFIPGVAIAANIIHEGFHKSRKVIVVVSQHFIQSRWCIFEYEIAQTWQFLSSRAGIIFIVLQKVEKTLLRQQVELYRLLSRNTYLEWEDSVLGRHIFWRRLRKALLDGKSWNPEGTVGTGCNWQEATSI
Target sequence in this assay (Q9Y6Y9 17-160 limits assumed): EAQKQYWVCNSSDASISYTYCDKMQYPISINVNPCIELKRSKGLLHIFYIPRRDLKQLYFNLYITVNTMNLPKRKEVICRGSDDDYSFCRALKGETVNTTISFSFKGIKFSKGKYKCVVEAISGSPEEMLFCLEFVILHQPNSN
From the text: The cell line is named here as TLR4-SEAP. The reporter gene encodes a secreted enzyme, called embryonic alkaline phosphatase or SEAP. The SEAP reporter is placed under the control of an IL-12 p40 minimal promoter fused to five NF-κB and AP-1-binding sites. Furthermore, the TLR4-SEAP cell line also contains a CD14 co-receptor gene, which is needed to transfer LPS to TLR4 receptors. The recombinant TLR binds its ligand, or distinct pathogen-associated molecule, initiates a chain of responses, leading to recruitment of NFkB and API transcription factors to the reporter gene promoter, which induce expression of SEAP.
For treatment, wells of a 96-well plate were seeded with 10,000 cells/well in 100 μL of growth medium. […] On day 4, medium was changed to assay medium (90 μl), which is the DMEM medium without fetal calf serum. […] 10 μl of the bacteria, LPS and culture medium of bacterial growth were added to the TLR4-SEAP cells. Samples were taken 24 hours later, following addition of LPS, bacteria, and culture medium. Expression of the reporter gene (SEAP) was quantified with a commercially available kit (SEAP Reporter Gene Assay of Cayman Chemical Co., Ann Arbor, Mich.).
EC50 was calculated using GraphPad Prism software (GraphPad Software, La Jolla, Calif.).
Tests were conducted to understand whether stannous fluoride could reduce LPS's ability to trigger proinflammatory responses in host cells.

E. coli LPS [3] = type: biochemical
Procedure: as §3, §4, §5

TLR2 = target: T3, TLR2 (Homo sapiens, UniProt O60603); type: cell-based; settings: stannous 1000 uM; P. gingivalis LPS
T3 construct: host or cells: human HEK 293T cells
T3 sequence (O60603 21-784): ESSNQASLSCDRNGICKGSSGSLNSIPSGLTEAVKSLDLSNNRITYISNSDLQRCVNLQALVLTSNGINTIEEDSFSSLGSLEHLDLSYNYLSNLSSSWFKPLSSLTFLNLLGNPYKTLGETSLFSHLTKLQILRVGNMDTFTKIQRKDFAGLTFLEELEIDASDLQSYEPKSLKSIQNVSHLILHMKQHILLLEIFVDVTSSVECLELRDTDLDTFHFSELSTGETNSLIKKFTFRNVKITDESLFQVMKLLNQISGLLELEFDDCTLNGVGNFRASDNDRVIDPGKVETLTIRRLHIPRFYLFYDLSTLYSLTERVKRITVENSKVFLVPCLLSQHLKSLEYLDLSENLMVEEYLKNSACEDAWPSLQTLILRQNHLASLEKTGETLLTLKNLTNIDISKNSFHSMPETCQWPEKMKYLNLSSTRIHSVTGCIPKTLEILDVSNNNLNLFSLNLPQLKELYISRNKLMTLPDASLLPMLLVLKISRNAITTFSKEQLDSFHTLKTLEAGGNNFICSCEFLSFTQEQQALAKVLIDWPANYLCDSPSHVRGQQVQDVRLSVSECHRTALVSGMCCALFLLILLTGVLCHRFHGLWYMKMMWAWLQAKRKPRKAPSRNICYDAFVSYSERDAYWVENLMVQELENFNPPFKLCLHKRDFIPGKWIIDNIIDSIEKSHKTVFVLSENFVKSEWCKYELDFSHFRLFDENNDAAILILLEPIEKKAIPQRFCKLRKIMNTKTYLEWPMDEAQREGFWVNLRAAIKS
From the text: The cell line is named here as TLR2-SEAP. The reporter gene encodes a secreted enzyme, called embryonic alkaline phosphatase or SEAP. The SEAP reporter is placed under the control of the interferon-β minimal promoter fused to five NFkB and AP-1-binding sites. Furthermore, a CD14 co-receptor gene was transfected into the reporter gene cells expressing TLR2, as CD14 has been identified as a co-receptor for TLR2 ligands to enhance the TLR response. The CD14 co-receptor is needed to transfer LTA to TLR2 receptors. The recombinant TLR2 binds its ligand, or distinct pathogen-associated molecule, initiates a chain of responses, leading to recruitment of NFkB and API transcription factors to the reporter gene promoter, which induce expression of SEAP.
For treatment with LTA, wells of a 96-well plate were seeded with 10,000 cells/well in 100 μL of growth medium. […] On day 4, medium (100 μL) was changed to DMEM medium without fetal calf serum. […] Samples were taken 24 hours later, following addition of samples. Expression of the reporter gene (SEAP) was quantified with a commercially available kit (SEAP Reporter Gene Assay of Cayman Chemical Co., Ann Arbor, Mich.).

[4] = tested on: IRF-luciferase reporter gene; test: THP1-Dual reporter cells, IRF-Lucia luciferase; type: cell-based, human
From the text: as §1, §2

TLR4 [5] = target: T2, TLR4; test: cell-based; type: cell-based; parameters: host or cells: HEK-Blue-hTLR4 (HEK 293T); settings: for Average fluorescence intensity (FI): Control 1027
Target sequence in this assay (O00206 24-839): as the sequence (O00206 24-839) above
Target sequence in this assay (Q9Y6Y9 17-160): as the sequence (Q9Y6Y9 17-160 limits assumed) above
Procedure: Stannous fluoride, Cetylpyridium chloride (CPC) and Triclosan were purchased from Sigma-Aldrich, St. Louis, Mo. […] The growth medium: DMEM, with 4.5 g/l glucose, supplemented 10% fetal bovine serum, 50 U/ml penicillin and streptomycin, 100 μg/ml Normocin, and 2 mM L-glutamine, purchased from Thermo Fisher, Waltham, Mass.

E. coli LPS [6] = tested on: E. coli LPS
Procedure: 0.7 ul of the sample solution was spotted on a MALDI plate, air-dried, and analyzed in negative ion mode using a MALDI-TOF/TOF 4800 plus system (AB-Sciex, Framingham, Mass., USA). Typical data acquisition uses mass scan range 500-3000 Da and a laser power of 4500. Data was collected in an automated fashion using random sampling over the sample spot with 250 shots per subspectrum and a total of 2500 shots per spectrum.

Compound: NC(=O)NCCC[C@H](N)C(=O)O [Citrulline]
- effect on P. gingivalis LPS 1690 stimulated proinflammatory cytokine production (IL-6, TNF-α, IL-12p70, IL-10, IL-2, IFN-r, IL-1β) (THP-1 cells): inhibited

Compound: Flagellin from B. subtilis: flagellin from B. subtilis
- EC50 of flagellin on TLR5 (TLR5; at 5 hours): 0.02 ng/mL
- EC50 of flagellin on TLR5 (TLR5; at 23 hours): 0.014 ng/mL

Compound: [F][Sn][F] [Tin (II) fluoride]
- expression of the NFKB-SEAP reporter gene by LPS and LTA in THP-1 dual cells (NFkB-SEAP reporter gene): inhibited
- Displacement % of LPS from binding to BODIPY TR cadaverine (E. coli LPS [1]): 12.69%
- Inhibition of LAL activity % (P. gingivalis LPS 1690): 60% and 49%
- cytokine production stimulated by LPS in human primary monocytes (human primary monocytes; 100 ng E. coli LPS or P. gingivalis LPS 1690, 24 hours): inhibited
- suppression of LPS on IL-8 production in human primary monocytes (human primary monocytes; dose-dependent): reversed
- reduction of P. gingivalis LPS activation on the TLR4 reporter system (TLR4 [2]; 3.2 mM): about 50%
- reduction of P. gingivalis LPS activation on the TLR4 reporter system (TLR4 [2]; […]): about 50%
- level of E. coli induction of TLR-4 (TLR4 [2]; stannous 500 uM or higher, 100 ng/ml E. coli LPS): decreased
- Inhibition of LAL activity % (E. coli LPS [3]): 92% and 87%
- level of P. gingivalis induction of TLR-2 (TLR2): decreased
- luciferase production in THP-1 dual cells stimulated by E. coli LPS [4]: inhibited
- fluorescence intensity of labeled LPS on HEK-Blue-hTLR4 cells (TLR4 [5]): reduced fluorescence intensity significantly
- % of control (TLR4 [5]; 500 μM): 64.5%
- Average fluorescence intensity (FI) (TLR4 [5]; 500 μM): 662
- binding to E. coli LPS (MALDI-TOF) (E. coli LPS [6]): binds to E. coli LPS

Compound: Oc1cc(Cl)ccc1Oc1ccc(Cl)cc1Cl [Triclosan (irgasan)]
- Inhibition of LAL activity % (P. gingivalis LPS 1690): 0%
- Inhibition of LAL activity % (E. coli LPS [3]): 10% and 0%
- Average fluorescence intensity (FI) (TLR4 [5]; 500 μM): 1021
- remaining activity at 500 µM (TLR4 [5]; HEK-Blue hTLR4, read-out: % of control): 99.4%

Compound: O.O.O=C([O-])CC(O)(CC(=O)[O-])C(=O)[O-].O=C([O-])CC(O)(CC(=O)[O-])C(=O)[O-].[Zn+2].[Zn+2].[Zn+2] [zinc citrate, dihydrate]
- Inhibition of LAL activity % (P. gingivalis LPS 1690; citrate, dihydrate): 104% and 57%
- Inhibition of LAL activity % (E. coli LPS [3]; citrate, dihydrate): 104% and 82%

Reference: patent US10156566B2, “Detoxification of microbial virulence factors in oral cavity” (priority 2015, dated 2018)
